Reference: patent US10300065B2, “Method of treating or prevention of atherothrombotic events in patients with history of myocardial infarction” (ASTRAZENECA AB, priority 2015, dated 2019)

Test: clinical
Type: in vivo
Conditions: for concentration at 2 h: human, plasma, oral, post dose (2 h)
Description: The pharmacokinetics (PK) and pharmacodynamics of the 60 mg bid dose had not previously been studied. […] 180 patients who had received >4 weeks of study medication had blood sampling in the morning pre-maintenance dose and again 2 h post-dose. All patients were receiving aspirin. […] Well-known VerifyNow® P2Y12 assay and light transmittance aggregometry (LTA; ADP 20 uM) were performed. Groups were compared using Kruskal-Wallis test with significance attached to P<0.01 to allow for multiple group comparisons.

CCCSc1nc(N[C@@H]2C[C@H]2c2ccc(F)c(F)c2)c2nnn([C@@H]3C[C@H](OCCO)[C@@H](O)[C@H]3O)c2n1 [Ticagrelor, (1S,2S,3R,5S)-3-[7-{[(1R,2S)-2-(3,4-difluorophenyl)cyclopropyl]amino}-5-(propylthio)-3H-[1,2,3]-triazolo[4,5-d]pyrimidin-3-yl]-5-(2-hydroxyethoxy)cyclopentane-1,2-diol]
plasma ticagrelor levels lower with 60 mg vs 90 mg (60 mg vs 90 mg): approximately ⅓
concentration at 2 h (60 mg bid): 448 ng/mL
concentration at 2 h (90 mg bid): 717 ng/mL
